The target of assay [1] is hGYS1 enzyme (recombinant hGYS1/GN1 protein) (Homo sapiens (Human), UniProt P13807). Put plainly: GYS1 coupled enzyme assay (PK/LDH). The format is biochemical. As to conditions: hGYS1/GN1 50 nM, UDP-Glucose 0.8 mM, G6P 1 mM; geometric mean of at least 2 runs.
In assay [2] the test system is hGYS1 enzyme / glycogen synthesis in HeLa cells. The experiment in a line: GYS1 cell based assay (glycogen synthesis, Glucose-glo). Also noted: species or system human. As to conditions: Homo sapiens, HeLa, 24 h, 24 h incubation, 20 mM glucose, geometric mean of at least 2 runs. Put shortly:
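HeLa cells starved 24 h in medium containing only 1× Glutamax were plated onto compound in medium with 20 mM glucose (1% DMSO final) for 24 h, 37 °C, 5% CO2. Acid lysates were Tris-quenched, glucoamylase-digested (pH 5.3, 1 h, 37 °C) and read by Glucose-glo luminescence. IC50 came from Hill fits, as geometric mean of ≥2 runs.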

The target in assay [3] is hGYS2 enzyme (recombinant hGYS2/GN1 protein) (Homo sapiens (Human), UniProt P54840). Put plainly: GYS2 coupled enzyme assay (PK/LDH). Format: biochemical. The settings on record: geometric mean of at least 2 assay runs on separate days, read-out: Avg_IC50. Put shortly: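 Read-out: NADH loss at 340 nm, read each minute for 10 min, slope normalized to controls, duplicate % inhibition fit to Hill (0–100). Enzyme: 200 nM hGYS2/GN1; substrate 2 mM UDP-glucose plus 0.2% glycogen and 2 mM G6P; pH 7.5 Tris, 2.5% DMSO.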

Structures are written as SMILES.

Sequence of hGYS2 enzyme (recombinant hGYS2/GN1 protein) (P54840 whole entry): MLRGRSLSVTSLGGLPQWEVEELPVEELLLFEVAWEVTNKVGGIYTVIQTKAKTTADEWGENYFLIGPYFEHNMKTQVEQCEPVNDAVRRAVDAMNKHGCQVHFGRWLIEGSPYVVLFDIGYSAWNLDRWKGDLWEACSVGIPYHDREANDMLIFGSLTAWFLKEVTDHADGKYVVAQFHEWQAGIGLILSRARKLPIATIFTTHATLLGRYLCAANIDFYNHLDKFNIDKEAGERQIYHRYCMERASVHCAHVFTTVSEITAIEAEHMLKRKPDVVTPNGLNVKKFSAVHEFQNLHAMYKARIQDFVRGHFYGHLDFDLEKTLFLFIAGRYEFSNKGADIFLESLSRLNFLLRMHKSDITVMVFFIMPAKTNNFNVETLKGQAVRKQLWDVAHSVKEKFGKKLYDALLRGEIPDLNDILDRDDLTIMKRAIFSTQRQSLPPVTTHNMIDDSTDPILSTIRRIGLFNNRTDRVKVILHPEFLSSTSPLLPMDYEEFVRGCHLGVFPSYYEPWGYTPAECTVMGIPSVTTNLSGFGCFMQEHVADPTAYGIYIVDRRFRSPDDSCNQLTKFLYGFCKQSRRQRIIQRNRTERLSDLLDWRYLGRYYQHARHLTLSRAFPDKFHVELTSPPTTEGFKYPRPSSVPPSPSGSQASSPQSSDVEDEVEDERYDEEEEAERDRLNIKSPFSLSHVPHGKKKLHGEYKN
Sequence of hGYS2 enzyme (recombinant hGYS2/GN1 protein) (P46976 whole entry partner): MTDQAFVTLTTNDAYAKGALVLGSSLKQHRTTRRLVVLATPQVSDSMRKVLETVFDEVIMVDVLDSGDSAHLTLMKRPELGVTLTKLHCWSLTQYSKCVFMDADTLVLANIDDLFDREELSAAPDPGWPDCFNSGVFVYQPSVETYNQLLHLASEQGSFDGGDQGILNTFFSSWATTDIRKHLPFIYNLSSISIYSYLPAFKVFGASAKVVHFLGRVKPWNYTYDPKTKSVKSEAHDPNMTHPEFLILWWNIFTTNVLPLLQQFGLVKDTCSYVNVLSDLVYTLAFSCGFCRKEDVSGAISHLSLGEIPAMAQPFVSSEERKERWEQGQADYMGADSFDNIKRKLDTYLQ
Sequence of hGYS1 enzyme (recombinant hGYS1/GN1 protein) (P13807 whole entry): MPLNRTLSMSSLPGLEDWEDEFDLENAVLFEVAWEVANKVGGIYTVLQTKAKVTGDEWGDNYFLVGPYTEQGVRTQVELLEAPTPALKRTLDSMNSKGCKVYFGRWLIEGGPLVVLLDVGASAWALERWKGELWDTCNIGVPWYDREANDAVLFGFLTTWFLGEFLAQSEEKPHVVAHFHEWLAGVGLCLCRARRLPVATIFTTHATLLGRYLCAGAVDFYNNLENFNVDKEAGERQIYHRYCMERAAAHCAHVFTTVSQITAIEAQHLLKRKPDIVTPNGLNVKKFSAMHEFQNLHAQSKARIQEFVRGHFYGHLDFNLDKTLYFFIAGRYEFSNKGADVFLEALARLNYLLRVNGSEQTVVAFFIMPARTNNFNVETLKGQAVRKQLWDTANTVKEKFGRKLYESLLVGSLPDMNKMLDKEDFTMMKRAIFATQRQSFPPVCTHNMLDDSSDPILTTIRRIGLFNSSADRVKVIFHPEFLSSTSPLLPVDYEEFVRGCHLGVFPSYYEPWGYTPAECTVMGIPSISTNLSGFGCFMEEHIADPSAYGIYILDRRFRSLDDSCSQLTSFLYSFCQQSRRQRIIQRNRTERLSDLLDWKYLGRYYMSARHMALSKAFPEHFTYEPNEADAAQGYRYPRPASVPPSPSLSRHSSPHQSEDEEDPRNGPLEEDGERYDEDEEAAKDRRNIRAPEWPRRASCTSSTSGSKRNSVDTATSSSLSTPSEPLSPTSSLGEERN
Sequence of hGYS1 enzyme (recombinant hGYS1/GN1 protein) (P46976 whole entry partner): as the sequence (P46976 whole entry partner) above

As to `O=C(N[C@@H](c1ccccc1)c1ccc(C2CC(F)(F)C2)c(F)n1)[C@@H]1C[C@@H](F)CN1C(=O)CNC(=O)N1CC(F)(F)C1` [Compound 512, (2S,4R)-1-{2-[(3,3-difluoroazetidine-1-carbonyl)amino]acetyl}-N-[(S)-[5-(3,3-difluorocyclobutyl)-6-fluoropyridin-2-yl](phenyl)methyl]-4-fluoropyrrolidine-2-carboxamide], the figures for the IC50 in assay [1], in assay [2] and in assay [3] were 15 nM, 290 nM and more than 100000 nM, respectively.

Turning to `O=C(N[C@@H](c1ccccc1)c1ccc(C2CC(F)(F)C2)c(F)n1)[C@@H]1C[C@@H](F)CN1C(=O)Cn1nnnc1C(F)F` [Compound 513, (2S,4R)-N-[(S)-[5-(3,3-difluorocyclobutyl)-6-fluoropyridin-2-yl](phenyl)methyl]-1-{2-[5-(difluoromethyl)-1H-1,2,3,4-tetrazol-1-yl]acetyl}-4-fluoropyrrolidine-2-carboxamide], the IC50 in assay [1] was 14 nM; in assay [2] it was 220 nM; in assay [3], more than 100000 nM.

On to `O=C(N[C@@H](c1ccccc1)c1ccc(C2CC(F)(F)C2)c(F)n1)[C@@H]1C[C@@H](F)CN1C(=O)Cn1ccc(=O)[nH]c1=O` [Compound 514, (2S,4R)-N-[(S)-[5-(3,3-difluorocyclobutyl)-6-fluoropyridin-2-yl](phenyl)methyl]-1-[2-(2,4-dioxo-1,2,3,4-tetrahydropyrimidin-1-yl)acetyl]-4-fluoropyrrolidine-2-carboxamide], for which the IC50 was 7 nM in assay [1], 770 nM in assay [2] and more than 100000 nM in assay [3].

Turning to `CCn1c(=O)ccn(CC(=O)N2C[C@H](F)C[C@H]2C(=O)N[C@@H](c2ccccc2)c2ccc(C3CC(F)(F)C3)c(F)n2)c1=O` [Compound 515, (2S,4R)-N-[(S)-[5-(3,3-difluorocyclobutyl)-6-fluoropyridin-2-yl](phenyl)methyl]-1-[2-(3-ethyl-2,4-dioxo-l,2,3,4-tetrahydropyrimidin-1-yl)acetyl]-4-fluoropyrrolidine-2-carboxamide], the IC50 is 4 nM in assay [1], 100 nM in assay [2] and more than 100000 nM in assay [3].

Turning to `O=C(N[C@@H](c1ccccc1)c1ccc(C2CC(F)(F)C2)c(F)n1)[C@@H]1C[C@@H](F)CN1C(=O)Cc1ccc(=O)[nH]c1` [Compound 516, (2S,4R)-N-[(S)-[5-(3,3-difluorocyclobutyl)-6-fluoropyridin-2-yl](phenyl)methyl]-4-fluoro-1-[2-(6-oxo-1,6-dihydropyridin-3-yl)acetyl]pyrrolidine-2-carboxamide], the IC50 in assay [1] is 8 nM; in assay [2], 710 nM; in assay [3] it was more than 100000 nM.

For the compound `O=C(N[C@@H](c1ccccc1)c1ccc(C2CC(F)(F)C2)c(F)n1)[C@@H]1C[C@@H](F)CN1C(=O)Cc1ccc[nH]c1=O` [Compound 517, (2S,4R)-N-[(S)-[5-(3,3-difluorocyclobutyl)-6-fluoropyridin-2-yl](phenyl)methyl]-4-fluoro-1-[2-(2-oxo-1,2-dihydropyridin-3-yl)acetyl]pyrrolidine-2-carboxamide], the results for the IC50 in assay [1], in assay [2] and in assay [3] were 8 nM, 540 nM and more than 100000 nM, respectively.

With `CCn1c(=O)c(C)cn(CC(=O)N2C[C@H](F)C[C@H]2C(=O)N[C@H](c2ccccc2)c2ccc(C3CC(F)(F)C3)c(F)n2)c1=O` [Compound 518, (2S,4R)-N-[(R)-[5-(3,3-difluorocyclobutyl)-6-fluoropyridin-2-yl](phenyl)methyl]-1-[2-(3-ethyl-5-methyl-2,4-dioxo-1,2,3,4-tetrahydropyrimidin-1-yl)acetyl]-4-fluoropyrrolidine-2-carboxamide], the figures for the IC50 in assay [1], in assay [2] and in assay [3] were 1500 nM, 10700 nM and more than 100000 nM, respectively.

Take `CCn1cc(CC(=O)N2C[C@H](F)C[C@H]2C(=O)N[C@@H](c2ccccc2)c2ccc(C3CC(F)(F)C3)c(F)n2)ccc1=O` [Compound 519, (2S,4R)-N-[(S)-[5-(3,3-difluorocyclobutyl)-6-fluoropyridin-2-yl](phenyl)methyl]-1-[2-(1-ethyl-6-oxo-1,6-dihydropyridin-3-yl)acetyl]-4-fluoropyrrolidine-2-carboxamide]: the IC50 in assay [1] is 8 nM; in assay [2], 220 nM; in assay [3] it was more than 100000 nM.

With `O=C(N[C@H](c1ccccc1)c1ccc(C2CC(F)(F)C2)c(F)n1)[C@@H]1C[C@@H](F)CN1C(=O)Cc1ccc(=O)[nH]c1` [Compound 520, (2S,4R)-N-[(R)-[5-(3,3-difluorocyclobutyl)-6-fluoropyridin-2-yl](phenyl)methyl]-4-fluoro-1-[2-(6-oxo-1,6-dihydropyridin-3-yl)acetyl]pyrrolidine-2-carboxamide], the IC50 was 557 nM in assay [1], more than 30000 nM in assay [2] and more than 100000 nM in assay [3].

Take `Cc1cc(CC(=O)N2C[C@H](F)C[C@H]2C(=O)N[C@@H](c2ccccc2)c2ccc(C3CC(F)(F)C3)c(F)n2)c[nH]c1=O` [Compound 522, (2S,4R)-N-[(S)-[5-(3,3-difluorocyclobutyl)-6-fluoropyridin-2-yl](phenyl)methyl]-4-fluoro-1-[2-(5-methyl-6-oxo-1,6-dihydropyridin-3-yl)acetyl]pyrrolidine-2-carboxamide]: the results for the IC50 in assay [1], in assay [2] and in assay [3] were 5 nM, 450 nM and more than 100000 nM, respectively.

For the compound `CN(C)C(=O)NCC(=O)N1C[C@H](F)C[C@H]1C(=O)N[C@@H](c1ccccc1)c1ccc(C2CC(F)(F)C2)cn1` [Compound 532, (2S,4R)—N—((S)-(5-(3,3-difluorocyclobutyl)pyridin-2-yl)(phenyl)methyl)-1-((dimethylcarbamoyl)glycyl)-4-fluoropyrrolidine-2-carboxamide], the IC50 in assay [1] is 65 nM; in assay [2], 1180 nM; in assay [3] it was more than 100000 nM.

Regarding `O=C(N[C@@H](c1ccccc1)c1ccc(C2CC(F)(F)C2)cn1)[C@@H]1C[C@@H](F)CN1C(=O)CNC(=O)N1CCC1` [Compound 533, (2S,4R)-1-{2-[(azetidine-1-carbonyl)amino]acetyl}-N-[(S)-[5-(3,3-difluorocyclobutyl)pyridin-2-yl](phenyl)methyl]-4-fluoropyrrolidine-2-carboxamide], the figures for the IC50 in assay [1], in assay [2] and in assay [3] were 43 nM, 1210 nM and more than 100000 nM, respectively.

Consider `O=C(N[C@@H](c1ccccc1)c1ccc(C2CC(F)(F)C2)cn1)[C@@H]1C[C@@H](F)CN1C(=O)Cc1cnn[nH]1` [Compound 534, (2S,4R)-N-[(S)-[5-(3,3-difluorocyclobutyl)pyridin-2-yl](phenyl)methyl]-4-fluoro-1-[2-(1H-1,2,3-triazol-5-yl)acetyl]pyrrolidine-2-carboxamide], for which the IC50 was 57 nM in assay [1], 1280 nM in assay [2] and more than 100000 nM in assay [3].

Take `Cc1cn(CC(=O)N2C[C@H](F)C[C@H]2C(=O)N[C@@H](c2ccccc2)c2ccc(C3CC(F)(F)C3)cn2)c(=O)[nH]c1=O` [Compound 535, (2S,4R)-N-[(S)-[5-(3,3-difluorocyclobutyl)pyridin-2-yl](phenyl)methyl]-4-fluoro-1-[2-(5-methyl-2,4-dioxo-1,2,3,4-tetrahydropyrimidin-1-yl)acetyl] pyrrolidine-2-carboxamide]: the IC50 in assay [1] was 12 nM; in assay [2], 1220 nM; in assay [3] it was more than 100000 nM.

The values above are taken from US11814367B2, “Inhibitors of glycogen synthase 1 (GYS1) and methods of use thereof” (Maze Therapeutics, Inc., priority 2021, dated 2023).
